One compound from publication PMC9598925, “Synthetic Amphipathic β-Sheet Temporin-Derived Peptide with Dual Antibacterial and Anti-Inflammatory Activities” (Antibiotics, 2022) can be followed below.

One data set has as its system sheep red blood cells. Put plainly: Hemolytic assay. The format is cell-based. The procedure:
Hemolysis was evaluated on sheep red blood cells (OXOID, SR0051D, Milan, Italy). Aliquots of cells in 0.9% (w/v) NaCl were incubated with the peptide [Nle^1, DLeu^9, DLys^10]TL at different concentrations (ranging from 3.12 to 100 μM) for 40 min at 37 °C with gentle shaking. Controls were erythrocytes treated with vehicle while total lysis controls were obtained by suspending cell in distilled water. Then, the samples were centrifuged for 5 min at 900× g, and the presence of hemoglobin in the supernatant was measured at an absorbance of 415 nm using a microplate reader (Infinite M200; Tecan, Salzburg, Austria) and compared to the complete lysis of erythrocytes (100%). The data reported are the mean ± the standard error of the mean (S.E.M.) of three independent experiments.

The nature of data set [1]: Circular dichroism in vesicles. Type of data set: physicochemical. The note with it: vesicles of DOPG/CL and DOPG/DOPE/CL, peptide 3 μM, phosphate buffer 5 mM pH 7.4, 25 °C; negative band at ~220 nm. On the procedure:
All CD spectra were recorded from 260 to 190 nm (a bandwidth of 3 nm, a time constant of 16 s, and a scan rate of 10 nm/min) on a Jasco J-175 spectropolarimeter using a 1 cm quartz cell at 25 °C. Small unilamellar vesicles (SUVs) made of DOPG/CL (58/42 ratio in moles) and DOPG/DOPE/CL (63/23/12 ratio in moles) were used in the conformational study. SUVs were prepared as reported previously. Firstly, lipids dissolved in chloroform and an equal volume of peptide solution dissolved in 2,2,2-trifluoroethanol (TFE) containing the peptide [Nle^1, DLeu^9, DLys^10]TL at a concentration of 3 μM were mixed, vortexed, and lyophilized overnight. Then, the dry samples were hydrated with phosphate buffer 5 mM, pH 7.4, for 1 h and sonicated for 30 min to obtain SUVs. Each spectrum was corrected for the blank and converted into mean molar ellipticity.

A short description of the next data set: ANTS/DPX leakage assay. The following applies: 100% = 0.1% Triton. The procedure: The ability of the peptide [Nle^1, DLeu^9, DLys^10]TL to induce LUVs leakage was evaluated using ANTS/DPX assay. After the preparation of lipid films (0.1 mM) as described above, fluorophores ANTS (12.5 mM) and DPX (45 mM) were dissolved in water and added to lipid films. The mixture was frozen and lyophilized overnight. Then, the lipid films with ANTS and DPX were hydrated with PBS 1× buffer, vortexed for 1 h and then treated to obtain LUVs. The nonencapsulated ANTS and DPX were removed by gel filtration using a Sephadex G-50 column (1.5 cm × 10 cm) at room temperature. The leakage experiment was performed titrating LUVs with different peptide concentrations of 5, 10, 15, 20, 30, 50 μM, and each sample was excited at 385 nm (slit width, 5 nm) and the fluorescence emission was recorded at 512 nm (slit width, 5 nm). The liposomes leakage promoted by peptide was correlated with an increase of ANTS fluorescence at 512 nm. In this experiment, the control was represented by the complete release of ANTS after the treatment of LUVs with 0.1% Triton. The liposomes leakage was calculated as % Leakage = (Fi − F0)/(Ft − F0), where F0 is the fluorescence of intact LUVs before the addition of peptide, and Fi and Ft is the intensities of the fluorescence achieved after peptide and Triton-X treatment, respectively.

For a further data set, the system named is S. aureus ATCC 25923. Type of data set: cell-based. On the procedure: (§1) All Gram-negative and Gram-positive strains were obtained from the American Type Culture Collection (Rockville, MD, USA). MICs were determined as described previously. 50 μL of bacterial culture properly diluted in Mueller–Hinton (MH) broth were added to each well of a 96-well plate containing 50 μL of MH with serially two-fold diluted peptide from 100 μM, to reach a final cell density of 1 × 10^6 CFU/mL. Each MIC value indicates the lowest concentration of compound that causes a total inhibition of bacterial growth after 16–18 h of incubation at 37 °C.

For the next data set, the system named is B. megaterium Bm11. The format is cell-based. On the procedure: as §1
For the next data set, the system named is E. coli ATCC 25922. The format is cell-based. The procedure: as §1
The test system of the next data set is A. baumannii ATCC 19606. Type of data set: cell-based. The procedure: as §1
Data set [2] concerns S. epidermidis ATCC 12228. Type of data set: cell-based. The procedure:
as §1

Data set [3] deals with K. pneumoniae ATCC BAA-1705. Type of data set: cell-based. On the procedure: as §1
Another data set deals with P. aeruginosa ATCC 27853. Type of data set: cell-based. The procedure: as §1
Data set [4] relates to J774A.1 murine macrophage cells. The following applies: MTT, 3 independent experiments.
Procedure: The spectrophotometric absorbance was then measured using a microtiter enzyme-linked immunosorbent assay reader (Multiskan™ GO Microplate Spectrophotometer; Thermo Scientific™, Milan, Italy) at 540 nm. The percentage of cell viability was assessed by the following formula: (OD of treated cells/OD of control) × 100.
Data set [5] deals with IL-6 production in LPS-stimulated J774A.1 cells. Put plainly: Anti-inflammatory activity, IL-6 ELISA in LPS-stimulated macrophages. The note with it: LPS 10 µg∙mL^−1, peptide 3 μM, 24 h, ELISA of supernatant, three independent experiments. The format is cell-based, murine. The procedure: Mouse macrophage cell line J774A.1 was cultured as previously described. Cells were seeded in Petri culture dishes (100 mm × 20 mm) at a density of 5 × 10^5 cells per dish and allowed to grow for 24 h. The medium was then replaced, and cells were treated with LPS (10 μg∙mL^−1) in presence or absence of [Nle^1, DLeu^9, DLys^10]TL at the concentration of 3 µM (non-cytotoxic concentration from MTT assay). Following incubation of 24 h, cells were collected with a cell scraper, and after centrifugation at 14,000× g for 10 min at 4 °C, the supernatant was collected and assayed for IL-6 enzyme-linked immunosorbent assay (ELISA) analysis.
In general terms: ELISA stands for enzyme-linked immunosorbent assay.

Converted amounts (≈) assume the structure as drawn. Read-outs that look alike come from different tables or passages of the source. Non-standard residues stand in square brackets, D forms with d. Residues, ends and D or L forms follow the SMILES beside them. Nle = CCCC[C@H](N)C(=O)O

As usually defined, the MIC is the smallest concentration in the dilution series that meets the test's criterion for growth inhibition. A lower MIC goes with greater potency. As to `CCCC[C@H](N)C(=O)N[C@@H](Cc1ccccc1)C(=O)N[C@H](C(=O)N1CCC[C@H]1C(=O)N[C@@H](Cc1c[nH]c2ccccc12)C(=O)N[C@@H](Cc1ccccc1)C(=O)N[C@@H](CO)C(=O)N[C@@H](CCCCN)C(=O)N[C@@H](Cc1ccccc1)C(=O)N[C@H](CC(C)C)C(=O)N[C@H](CCCCN)C(=O)N[C@@H](CCCNC(=N)N)C(=O)N[C@H](C(=O)N[C@@H](CC(C)C)C(N)=O)[C@@H](C)CC)C(C)C` [[Nle^1, DLeu^9, DLys^10]TL] (H-[Nle]FVPWFSKF[dL][dK]RIL-NH2), the hemolysis in the data set on sheep red blood cells (50 µM) and in the data set on sheep red blood cells (100 µM) was ~ 40% in each case. In addition, the “molecular conformation (CD)” value in [1] is “β-type conformation”. Moreover, the LUVs leakage in the data set “ANTS/DPX leakage assay” (10 μM peptide, LUVs DOPG/CL) is recorded as ~ 60%; in “ANTS/DPX leakage assay” (highest concentration of 50 μM, LUVs DOPG/DOPE/CL), ~ 20%. The MIC against S. aureus ATCC 25923 worked out at 3.12 µM (≈ 5.6 µg/mL); against B. megaterium Bm11, 0.78 µM (≈ 1.4 µg/mL); in the data set on E. coli ATCC 25922, 6.25 µM (≈ 11.2 µg/mL); in the data set with A. baumannii ATCC 19606 it was 3.12 µM (≈ 5.6 µg/mL); in data set [2], 3.12 µM (≈ 5.6 µg/mL); in [3], 12.5 µM (≈ 22.4 µg/mL). The same compound returned an MIC with P. aeruginosa ATCC 27853 of 12.5 µM (≈ 22.4 µg/mL). Moreover, the “cytotoxic effect on murine macrophage cell line” value in data set [4] (J774A.1, 1–3 μM) is “safe profile”; in data set [4] (J774A.1, 10 and 30 μM), “significant reduction of cell viability”. Besides, in [5], the IL-6 production result was “significant modulation of IL-6 production”.
